Laboratory results as given in US5843950A, “1,4-dihydropyridine compound and pharmaceutical composition containing the same” (Nikken Chemicals Co., Ltd., priority 1994, dated 1998).
Like-named read-outs stand apart in the source and are kept apart here.

How the values were obtained:
KB cells [1] = experiment: In vitro suppression of proliferation of KB cancer cells by concomitant use with doxorubicin; format: cell-based, Human; conditions: test compound 1 μg/ml with ADM, ADM alone in KB = 1
Procedure: (§1) In vitro test of action suppressing proliferation of cancer cells by concomitant use with doxorubicin
(§2) As the incubation solutions, use was made of 10% fetal calf serum (made by Flow Laboratories) and Eagle MEM medium (made by Nissui Seiyakusha) containing 0.292 mg/ml of L-glutamine (made by Flow Laboratories). The tests of the action in overcoming resistance to anti-cancer drugs or action reinforcing the effect of the anti-cancer drug through concomitant use of the anti-cancer drug doxorubicin (adriamycin, ADM) and the test compound were performed as follows: The test cells were suspended in incubation solutions and adjusted to a cell density of about 200 cells/ml. The cell suspensions were injected in 2 ml amounts into petri dishes and were incubated in a CO2 gas incubator (5% CO2, 95% air) at 37° C. for 24 hours. Next, 5 to 10 μl of a predetermined concentration of the aqueous ADM solution and a predetermined concentration of a DMSO solution of the test compound were added, then the incubation was continued for a further 7 days. After the end of the incubation, the result was immobilized by methanol, Giemsa stained and measured for the number of colonies per dish. The results were used to prepare a volume-reaction curve.

VJ-300 cells [2] = experiment: In vitro suppression of proliferation of multi-drug resistant VJ-300 cells by concomitant use with doxorubicin; format: cell-based, Human; conditions: test compound 1 μg/ml with ADM, ADM alone in KB = 1
Procedure: as §1, §2

TxA2 synthesis = TxA2 synthesis inhibiting action test (human blood platelet microsomes); format: biochemical; conditions: prostaglandin H2
Procedure: TxA2 Synthesis Inhibiting Action Test
One ml of a buffer (20 mM Tris-HCl buffer, 1 mM EDTA, pH 7.5) containing human blood platelet microsomes (50 μg protein/ml) and the test compound (final concentration 10^-7 M) was agitated, then incubated at 0° C. for 30 minutes. To this was added prostaglandin H2 (100 ng/2 μl). This was incubated at 23° C. for 3 minutes to cause a reaction. Next, 1M hydrochloric acid was added to make the solution acidic and stop the reaction, then this was neutralized by 1M Tris-Base and centrifuged at 3000 rpm for 20 minutes. The amount of the TxB2 in the supernatant was measured by the EIA method (Cayman Co. kit).

[3] = test system: KCl contraction in rat arteries (thoracic aorta); experiment: Action easing KCl contraction in rat arteries (thoracic aorta ring); conditions: read-out: IC50 value (50% inhibitory concentration of hyperpotassium contraction), Test Example 7, Table 7, 37° C.
Procedure: Action easing KCl contraction in rat arteries
The specimen was stabilized for approximately 60 minutes, then a potassium chloride solution was added to the Magnus tube to give a final concentration of […]. The positive control compound or the compound of the present invention was cumulatively added from 1×10^-10 M to 1×10^-4 M when the contraction reaction occurring at that time reached equilibrium. The contraction force was recorded by an FD-pickup (made by Nihon Kodensha) via a polygraph (made by Nihon Kodensha).

Acute toxicity test = conditions: mouse, in vivo, ip; mice, intraperitoneal, 7 days observation
Procedure: Animals used: ICR male mice (Charles River Japan) 7-8 weeks old, three mice per group.
Test method: The compound of the present invention was suspended in 0.5% sodium carboxymethylcellulose (CMC-Na) containing 0.1% Tween 80. It was administered to the mice intraperitoneally from 2000 mg/kg to 125 mg/kg by a ratio of 1/2 and from 125 mg/kg to 31.3 mg/kg by a ratio of 1/√2 in groups of three mice until no more deaths were observed. The survival of the animals was observed up until 7 days after administration and the LD50 was calculated by the Van Der Wearder area method.

[4] = test system: VCR resistant murine leukemia (P388/VCR) cells; experiment: In vivo effect for overcoming resistance to vincristine in VCR resistant murine leukemia (P388/VCR) bearing mice; set-up: species or system CDF1 male mice
From the text: In vivo test of action suppressing proliferation of cancer cells by concomitant use with anti-cancer drug
The number of survival days were found and the life prolonging rate (T/C) with respect to the controls was found. The effect in overcoming resistance to an anti-cancer drug (T/V) was found by the following formula.
Effect for overcoming resistance to an anti-cancer drug (T/V) %
=[Life prolonging rate (T/C) in case of concomitant use of VCR and the compound of the present invention]/[Life prolonging rate (T/C) in case of VCR alone]×100
Using Compound 18 to Compound 22 and Compound 32, the same procedure was followed as in Test Example 5 to find the effect for overcoming resistance to an anti-cancer drug in vincristine (VCR) resistant murine leukemia cell bearing mice.

[5] = test system: KCl contraction in rat arteries (thoracic aorta); experiment: Action easing KCl contraction in rat arteries (thoracic aorta ring); conditions: read-out: IC50 value (50% inhibitory concentration of hypercalcemic contraction), Test Example 8, Table 8
multi-drug resistance = conditions: Cancer Res., 41, 1967-1972 (1981); Cancer and Chemotherapy, vol. 11, pp. 750-759 (1984); cited from earlier work
VJ-300 cells [6] = experiment: In vitro suppression of proliferation of multi-drug resistant VJ-300 cells by concomitant use with vincristine; format: cell-based, Human; conditions: test compound 1 μg/ml with VCR, VCR alone in KB = 1
KB cells [7] = experiment: In vitro suppression of proliferation of KB cancer cells by concomitant use with vincristine; format: cell-based, Human; conditions: test compound 1 μg/ml with VCR, VCR alone in KB = 1
Procedure: as §2
In vitro test of action suppressing proliferation of cancer cells by concomitant use with vincristine […]

[8] = Test Example 5, Table 5, T/C with VCR + compound over T/C with VCR alone ×100
[9] = Test Example 5, Table 5, VCR 100 μg/kg i.p. 5 days with compound 100 mg/kg (verapamil 60, nicardipine 75 mg/kg)
[10] = Test Example 6, Table 6, same procedure as Test Example 5

Structure (SMILES)	TxA2 synthesis inhibiting action Rate of suppression at 10^-7 mol (%) (TxA2 synthesis)	IC50 [3]	LD50 at 168 h (Acute toxicity test)	Effect for overcoming resistance T/V (%) [4, 8]	Life prolonging rate T/C (%) [4, 9]	Mean days of survival [4, 9]	IC50 [5]	also measured
COc1cccc2c1C(=O)c1c(O)c3c(c(O)c1C2=O)C[C@@](O)(C(=O)CO)C[C@@H]3O[C@H]1C[C@H](N)[C@H](O)[C@H](C)O1 [ADM, doxorubicin]	–	–	–	–	–	–	–	Resistance with ADM, KB (LD50 concentration of ADM relative to ADM alone in KB cells) (KB cells [1]): 1; Resistance with ADM, VJ-300 (LD50 concentration of ADM relative to ADM alone in KB cells) (VJ-300 cells [2]): 26.4
CC1=C(C(=O)OCCCc2cccnc2)C(C(C)C)C(C(=O)OCCCc2cccnc2)=C(C)N1 [Compound 1, 2,6-dimethyl-4-isopropyl-1,4-dihydropyridine-3,5-dicarboxylic acid bis[3-(3-pyridyl)propyl]ester]	90.7%	> 30 µM	750 mg/kg	–	–	–	–	–
CCCC(C)C1C(C(=O)OCCCc2cccnc2)=C(C)NC(C)=C1C(=O)OCCCc1cccnc1 (stereo not shown) [Compound 3, 2,6-dimethyl-4-(1-methylbutyl)-1,4-dihydropyridine-3,5-dicarboxylic acid bis[3-(3-pyridyl)propyl]ester]	82.4%	–	188 mg/kg	161%	172%	17.2 days	–	–
CC1=C(C(=O)OCCCc2cccnc2)C(Cc2ccccc2)C(C(=O)OCCCc2cccnc2)=C(C)N1 [Compound 5, 2,6-dimethyl-4-benzyl-1,4-dihydropyridine-3,5-dicarboxylic acid bis[3-(3-pyridyl)propyl]ester]	–	–	1120 mg/kg	–	–	–	42 µM	–
CC1=C(C(=O)OCCCc2cccnc2)C(C(c2ccccc2)c2ccccc2)C(C(=O)OCCCc2cccnc2)=C(C)N1 [Compound 6, 2,6-dimethyl-4-benzhydryl-1,4-dihydropyridine-3,5-dicarboxylic acid bis[3-(3-pyridyl)propyl]ester]	–	25.5 µM	2000 mg/kg	–	–	–	–	–
CC1=C(C(=O)OCCCc2cccnc2)C(C(C)C)C(C(=O)OCc2ccncc2)=C(C)N1 (stereo not shown) [Compound 15, 2,6-dimethyl-4-isopropyl-1,4-dihydropyridine-3,5-dicarboxylic acid 3-(4-pyridylmethyl) ester, 5-[3-(3-pyridyl)propyl]ester]	83.5%	–	–	134%	144%	14.4 days	4.2 µM	–
CCCCCCCCC1C(C(=O)OCCCc2cccnc2)=C(C)NC(C)=C1C(=O)OCCCc1cccnc1 [Compound 16, 2,6-dimethyl-4-n-octyl-1,4-dihydropyridine-3,5-dicarboxylic acid bis[3-(3-pyridyl)propyl]ester]	–	–	> 2000 mg/kg	–	–	–	62 µM	–
CCCCCC1C(C(=O)OCCCc2cccnc2)=C(C)NC(C)=C1C(=O)OCCCc1cccnc1 [Compound 18, 2,6-dimethyl-4-n-pentyl-1,4-dihydropyridine-3,5-dicarboxylic acid bis[3-(3-pyridyl)propyl]ester]	–	–	> 2000 mg/kg	–	–	–	4.6 µM	Effect for overcoming resistance T/V (%) [4, 10]: 140%; Life prolonging rate T/C (%) [4, 10]: 143%; Mean days of survival [4, 10]: 15.3 days
COC(=O)C1=C(C)NC(C)=C(C(=O)OCCN(C)Cc2ccccc2)C1c1cccc([N+](=O)[O-])c1 (stereo not shown) [Nicardipine, nicardipine, reference compound]	–	0.53 µM	–	123%	132%	13.2 days	0.15 µM	overcoming multi-drug resistance by concomitant administration with an anti-cancer drug (multi-drug resistance): effective
CC[C@]1(O)C[C@H]2CN(CCc3c([nH]c4ccccc34)[C@@](C(=O)OC)(c3cc4c(cc3OC)N(C=O)[C@H]3[C@@](O)(C(=O)OC)[C@H](OC(C)=O)[C@]5(CC)C=CCN6CC[C@]43[C@@H]65)C2)C1 [VCR, vincristine, reference compound]	–	–	–	100%	107%	10.7 days	–	Resistance with VCR, VJ-300 (LD50 concentration of VCR relative to VCR alone in KB cells) (VJ-300 cells [6]): 603.4; Effect for overcoming resistance T/V (%) [4, 10]: 100%; Life prolonging rate T/C (%) [4, 10]: 102%; Mean days of survival [4, 10]: 10.9 days; Resistance with VCR, KB (LD50 concentration of VCR relative to VCR alone in KB cells) (KB cells [7]): 1
